This note sets out measurements from publication PMC7689089, “Regorafenib combined with PD1 blockade increases CD8 T-cell infiltration by inducing CXCL10 expression in hepatocellular carcinoma” (Journal for Immunotherapy of Cancer, 2020).

Like-named read-outs stand apart in the source and are kept apart here.

For data set [1], the system named is RIL-175 cells. Nature of the data set: CXCL10 secretion by RIL-175 cells in vitro (ELISA). The format is cell-based, mouse. The note with it: 36 hours. An excerpt:
To determine if CXCL10 was produced by murine HCC cells in response to regorafenib treatment, we next cultured RIL-175 cells with various concentration of regorafenib in vitro and measured the CXCL10 levels by ELISA. […]
treated by regorafenib as standard of care (HCC) (using the DFCI Protocol No.: 13-416 “Collection of Specimens and Clinical Data for Patients with Known or Suspected Solid Tumors”, PI, Dr. Juric, MGH) or in a phase I clinical trial of regorafenib monotherapy in acute myeloid leukemia (AML) patients (ClinicalTrials.gov Identifier: NCT03042689, PI, Hobbs, MGH). Both protocols have been IRB approved, and written consent was obtained from all patients.
Protein analyses. Western blotting was performed using antibodies against Stat1 (D1K9Y), phosphorylated (p)-Stat1 (Tyr701) (D4A7), Stat3 (79D7), p-Stat3 (Ser727) (Cell Signaling Technology, Danvers, MA), and IFN-γ (EPR1108) (Abcam, Cambridge, MA). Multiplexed protein array analysis was performed for protein extracts from whole tumors, using V-PLEX Proinflammatory Panel 1 Mouse Kit, V-PLEX Cytokine Panel 1 Mouse Kit and V-PLEX […] (Meso-Scale Discovery, Rockville, MD). For cell supernatant collection, 1x10^6 of RIL-175 cells were cultured in DMEM medium with 2% FBS and regorafenib was given in a various dose.
Supernatant was collected after 36hr of incubation and multiplexed protein array analysis was done using the same kit above.
Flow cytometry analysis. Tumor tissues were extracted from the mice, weighted and minced with a scalpel. Hank’s buffered salt solution (HBSS) with 1.5mg/ml of collagenase and hyaluronidase was added to the minced tissues and incubated for 30 min at 37°C. After incubation, digested tissues were passed through the 70μm cell strainer and washed with PBS with 2% BSA. After preparation, cells were suspended in 2ml of PBS with 2% BSA, then counted using a cell counting plate (Kova slide) (if the final concentration of cell exceeded 10^7 cells/ml, a dilution factor was applied). One hundred microliters of this suspension were used per subsequent flow cytometry staining. […]
On the technique in general: In an ELISA, binding on a coated surface is turned into a signal by an enzyme label.

For another data set, the system named is CXCL10. Nature of the data set: CXCL10/CXCR3 expression in RIL-175 tumor tissue (RNA-seq, ELISA, RNA-Scope ISH, western blot). The format is in vivo, mouse. The note with it: regorafenib alone at 10 mg/kg and 20 mg/kg; 6 hours after treatment. As to the method: The RNA-Scope assay was performed according to manufacturer’s instructions.[32] Briefly, formaldehyde-fixed and paraffin-embedded human and mouse HCC tissue blocks were cut in 5 µm sections, pretreated for 30 min, following digestion and hybridization at 40°C in a HybEZ oven with both dual labeling probes antimurine CXCR3 probe (Mm-CXCR3; 402511-C2) and CXCL10 (Mm-CXCL10; 408921) or human CXCL10 (Hs-CXCL10; 311851), all from Advanced Cell Diagnostics. Counterstaining was performed using hematoxylin for 10 s.
(§1) (A) Changes induced by combination of regorafenib (10 mg/kg) with anti-PD1 antibody in immune-related pathways from the gene set enrichment analysis (GSEA) using curated gene sets in RIL-175 HCC model (see also online supplemental dataset S1 and figure S2E). (B, C) Changes induced by combination of regorafenib (10 mg/kg) with anti-PD1 antibody in STAT3 and STAT1 activity (B), showing an increased ratio of phosphorylated (p)-STAT1/p-STAT3 (normalized to total STAT1 and STAT3, respectively) by western blot analysis of whole RIL-175 HCC tissue (C) (n=4 mice). […] (J, K) Combination therapy increases CXCL10 protein expression in whole RIL-175 tumor tissue 6 hours and 12 hours after in vivo when regorafenib treatment was used at doses of 10 mg/kg (R10) and 20 mg/kg (R20) (n=3) by western blot analysis (J); quantitative data of CXCL10/β-actin ratios are shown in (K). […]

Another data set has as its system STAT3. Nature of the data set: STAT1/STAT3 phosphorylation in RIL-175 HCC tissue. The format is in vivo, mouse. The settings on record: samples of the PK study. As to the method: as §1, with “mice). (D) Treatment with regorafenib increases CXCL10 expression by RIL-175 HCC cells in vitro after 36 hours, in a dose-dependent manner (n=6). Culture medium alone was used as a negative control (NC).” for “mice).”
(§2) Flow cytometry analysis. […] After preparation, cells were suspended in 2ml of PBS with 2% BSA, then counted using a cell counting plate (Kova slide) (if the final concentration of cell exceeded 10^7 cells/ml, a dilution factor was applied). […]

The subject of data set [2] is RIL-175 cells. Nature of the data set: STAT1/STAT3 activity in RIL-175 cells in vitro (western blot). The format is cell-based, mouse. The note with it: 1 µM in vitro. As to the method: as §1, with “mice). (D) Treatment with regorafenib increases CXCL10 expression by RIL-175 HCC cells in vitro after 36 hours, in a dose-dependent manner (n=6). Culture medium alone was used as a negative control (NC).” for “mice).”
as §2
In general terms: Immunoblotting shows a protein as a band on a membrane.

The conditions of data set [3]: in vivo.
Protocol: (§3) From the orthotopic HCC and liver damage mouse models described above, blood samples were collected at 1, 4, 7 and 24 hours after once-daily oral administration of 5, 10 and 20 mg/kg regorafenib, respectively, for 5 days. Anti-PD1 antibody was given on days 1 and 4 with dose of 10 mg/kg by intraperitoneal injection. Blood samples were drawn from four to five animals per sampling time point. Regorafenib and its active metabolites M-2, M-4 and M-5 were analyzed in plasma samples using a validated bioanalytical liquid chromatography-tandem mass spectrometry.[25 33] Pharmacokinetic (PK) parameters were derived from the area under the plasma concentration versus time curve (AUC) using a non-compartmental analysis.
(§4) In addition, we evaluated PK parameters in HCC-bearing mice after regorafenib administration alone at doses of 5, 10 and 20 mg/kg or in combination with anti-PD1 therapy at the 10 mg/kg regorafenib dose for 5 days to achieve a steady state.
A short description of data set [4]: Pharmacokinetic analysis of regorafenib and metabolites in plasma and tumor tissue of mice with HCC and liver damage. The note with it: n=4-5 mice.
Protocol: as §3, §4

Take `CNC(=O)c1cc(Oc2ccc(NC(=O)Nc3ccc(Cl)c(C(F)(F)F)c3)c(F)c2)ccn1` [regorafenib]: in the data set with RIL-175 cells [1], the “Regorafenib concentration at peak CXCL10 secretion” value was 1 µM. Further, the “Level of CXCL10 secreted by RIL-175 cells” value in the data set with RIL-175 cells [1] (various concentrations, n=6) is listed as “significantly increased”. For the same compound, in the data set with CXCL10, the “CXCL10 protein in whole tumor tissue lysate (western blot)” value is on record as “increased protein levels”. Besides, the “Phosphorylated (p)STAT3 levels in HCC tissues” value with STAT3 is given as “inhibited”. The “STAT1 and STAT3 activity (p-STAT1/p-STAT3) in RIL-175 cells” value in the data set with RIL-175 cells [2] was “STAT1 activation and STAT3 inhibition”. Moreover, in data set [3] (C57Bl/6, mouse, po, 5 mg/kg), the “Tumor AUC” value came out at 2320 ng·h/mL, the “Tumor AUCnorm” value was determined as 0.465 kg·h/L and the “Tumor Cmax” value worked out at 191 µg/kg. In data set [3] (C57Bl/6, mouse, po, 10 mg/kg), the “Plasma AUC” value worked out at 2140 ng·h/mL, the “Plasma Cmax” value is 190 ng/mL, the “Tumor AUC” value amounted to 4670 ng·h/mL and the “Tumor AUCnorm” value came out at 0.467 kg·h/L. Also, in data set [3] (C57Bl/6, mouse, po, 10 mg/kg), the “Tumor Cmax” value was found to be 291 µg/kg. In data set [3] (C57Bl/6, mouse, po, 20 mg/kg), the “Tumor AUC” value was found to be 7930 ng·h/mL, the “Tumor AUCnorm” value worked out at 0.396 kg·h/L and the “Tumor Cmax” value was 575 µg/kg. For the same compound, in data set [3] (mouse), the “Cmax in the tumor tissue, combination group versus R10 group” value was “higher”; the “Plasma AUC0–24 and Cmax versus dose” value is “dose-proportional”; the “Tumor AUC0–24 and Cmax versus dose” value was “dose-proportional increase”. The “Plasma AUCnorm” value in data set [3] (mouse, po, 5 mg/kg) stood at 0.290 kg·h/L. For the same compound, the “Plasma AUCnorm” value in data set [3] (mouse, po, 10 mg/kg) was 0.241 kg·h/L. Besides, the “Plasma AUCnorm” value in data set [3] (mouse, po, 20 mg/kg) turned out to be 0.287 kg·h/L. Further, the “Plasma maximum concentration (Cmax), R10 alone versus R10+P” value in data set [4] is listed as “No difference”.
